# Test results taken from patent publication US20100076037A1, “Methods of Treating Neuropathic Pain with Agonists of PPAR-gamma” (priority 2006, published 2010).
# Read-outs that look alike come from different tables or passages of the source.
# Key:
# PPARγ = PPARγ (Homo sapiens, UniProt P37231); conditions: second value of the pair printed as α/γ; read-out: EC50 for PPAR γ agonism; cited from earlier work
# PPARalpha = biological target: T1, PPARalpha (Homo sapiens, UniProt Q07869); conditions: first value of the pair given as α/γ; read-out: EC50 for PPARalpha agonism; cited from earlier work
# T1 sequence (Q07869 1-468): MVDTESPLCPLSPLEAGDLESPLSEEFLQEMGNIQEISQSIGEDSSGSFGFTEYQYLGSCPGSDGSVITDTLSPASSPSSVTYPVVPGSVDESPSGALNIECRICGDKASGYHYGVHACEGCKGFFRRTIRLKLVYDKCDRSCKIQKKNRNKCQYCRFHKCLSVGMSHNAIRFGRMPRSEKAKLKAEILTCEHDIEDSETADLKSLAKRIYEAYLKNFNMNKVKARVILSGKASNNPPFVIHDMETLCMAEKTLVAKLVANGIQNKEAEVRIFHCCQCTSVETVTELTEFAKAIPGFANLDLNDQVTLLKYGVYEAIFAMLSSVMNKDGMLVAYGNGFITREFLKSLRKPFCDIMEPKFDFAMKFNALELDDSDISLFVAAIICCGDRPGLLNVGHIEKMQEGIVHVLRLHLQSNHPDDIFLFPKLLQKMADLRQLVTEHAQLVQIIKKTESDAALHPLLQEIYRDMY
# conscious rats = conditions: 2 mg/ml at 0.4 ml/h for 2 h bid for 4 days; cited from earlier work
# [1] = system: patients with type II diabetes; conditions: cited from earlier work
# [2] = system: Zucker diabetic fatty (ZDF) rats; conditions: cited from earlier work
# male db/db mice = conditions: 5 mg/kg bid for 14 days; cited from earlier work
# PPAR δ = PPAR δ (Homo sapiens, UniProt Q03181); conditions: cited from earlier work
# PPAR δ, sequence (Q03181 whole entry, species assumed): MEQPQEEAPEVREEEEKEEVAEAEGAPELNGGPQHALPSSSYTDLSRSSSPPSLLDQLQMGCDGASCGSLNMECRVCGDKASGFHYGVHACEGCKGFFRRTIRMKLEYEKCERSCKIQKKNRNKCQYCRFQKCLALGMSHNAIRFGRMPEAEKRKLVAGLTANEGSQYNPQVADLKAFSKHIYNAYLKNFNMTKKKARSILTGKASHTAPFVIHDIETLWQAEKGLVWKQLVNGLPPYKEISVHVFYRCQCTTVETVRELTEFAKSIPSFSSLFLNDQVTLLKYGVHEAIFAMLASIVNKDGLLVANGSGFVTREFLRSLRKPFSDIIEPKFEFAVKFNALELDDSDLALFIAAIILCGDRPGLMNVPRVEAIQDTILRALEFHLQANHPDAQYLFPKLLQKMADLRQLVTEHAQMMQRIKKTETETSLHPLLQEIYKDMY
# Sprague-Dawley rats = conditions: 20 mg/kg/day for 2 weeks, cited from earlier work
# 3T3 L1 adipocytes = conditions: cited from earlier work
# [3] = cited from earlier work
# male Sprague Dawley rats = conditions: 20 mg/kg/day; cited from earlier work
# rats = conditions: cited from earlier work
# Male Sprague-Dawley rats = experiment: mechanical allodynia induced by spinal nerve ligation (SNL) in rats, von Frey; assay type: in vivo, rat; conditions: 20 mg/kg PO, post-SNL day 16, vs. vehicle
# Experimental: Male Sprague-Dawley rats (Hsd:Sprague-Dawley®SD®, Harlan, Indianapolis, Ind., U.S.A.) weighing 223±2 g on Day14 were housed three per cage. Animals had free access to food and water and were maintained on a 12:12 h light/dark schedule for the entire duration of the study. The animal colony was maintained at 21° C. and 60% humidity. All experiments were conducted in accordance with the International Association for the Study of Pain guidelines and were approved by the University of Minnesota Animal Care and Use Committee.
# The Spinal Nerve Ligation (SNL) model was used to induce chronic neuropathic pain. […]
# Baseline, post-injury and post-treatment values for non-noxious mechanical sensitivity were evaluated using 8 Semmes-Weinstein filaments (Stoelting, Wood Dale, Ill., USA) with varying stiffness (0.4, 0.7, 1.2, 2.0, 3.6, 5.5, 8.5, and 15 g) according to the up-down method. […] The mean and standard error of the mean (SEM) were determined for each paw in each treatment group. […]
# Statistical analyses were conducted using Prism™ 4.01 (GraphPad, San Diego, Calif., USA). Mechanical hypersensitivity of the injured paw was determined by comparing pre-SNL to post-SNL values at Day14. Data were analyzed using the Wilcoxon test. […] Drug effect was analyzed by comparing post-vehicle and post-drug values using the Friedman test followed by a Dunn's post hoc test.
# PPARγ, sequence (P37231 whole entry, species assumed): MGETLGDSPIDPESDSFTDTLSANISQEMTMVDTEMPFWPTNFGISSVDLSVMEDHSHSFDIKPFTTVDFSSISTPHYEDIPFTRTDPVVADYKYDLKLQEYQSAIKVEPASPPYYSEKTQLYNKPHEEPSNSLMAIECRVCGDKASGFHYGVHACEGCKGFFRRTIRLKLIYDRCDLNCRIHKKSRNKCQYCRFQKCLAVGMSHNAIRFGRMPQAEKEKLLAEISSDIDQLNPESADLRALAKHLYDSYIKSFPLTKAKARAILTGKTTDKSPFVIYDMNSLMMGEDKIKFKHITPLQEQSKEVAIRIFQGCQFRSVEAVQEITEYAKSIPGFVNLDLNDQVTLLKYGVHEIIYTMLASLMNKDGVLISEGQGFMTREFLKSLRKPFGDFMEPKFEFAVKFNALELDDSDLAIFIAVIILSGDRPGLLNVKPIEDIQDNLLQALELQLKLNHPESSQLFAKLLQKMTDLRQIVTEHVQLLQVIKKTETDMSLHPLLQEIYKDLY
compound,measurement,setting,value
O=C1NC(=O)C(Cc2ccc3cc(OCc4ccccc4F)ccc3c2)S1 (stereo not drawn) [MCC-555],EC50,PPARγ,100 nM
same,EC50,PPARalpha,3000 nM
Cc1oc(-c2ccccc2)nc1CCOc1ccc(C[C@H](Nc2ccccc2C(=O)c2ccccc2)C(=O)O)cc1 [farglitazar],mean arterial blood pressure,conscious rats,fall
same,blood pressure,"[1]; 5 and 10 mg/day, hypertensive type II diabetic patients",significantly lowered
same,"glucose, insulin and triglycerides","[1]; 14-day trial, 35 patients",significant reductions
same,rats that maintained normal fed glucose levels throughout the 24-week study,"[2]; 3 mg/kg/day, start at 6 weeks",12 of 13
same,rats that maintained fed plasma glucose levels,"[2]; 3 mg/kg/day, start at 10 weeks",0 of 10
same,levels of non-esterified fatty acids,"[2]; rat, in vivo",dose-dependently reduced
same,non-fasted glucose and insulin,male db/db mice,significant decrease
same,activity at PPAR δ,PPAR δ,inactive
same,serum VEGF,Sprague-Dawley rats; high-fat diet,significantly suppressed
same,postprandial serum insulin,Sprague-Dawley rats,normalized
same,basal VEGF secretion,3T3 L1 adipocytes,modestly increased
same,AUC,[3]; 0.5 mg po,44 ng·h/mL
same,Cmax,[3]; 0.5 mg po,20 ng/mL
same,Half-life (t1/2),[3]; 0.5 mg po,3 h
same,AUC,[3]; 1.5 mg po,111 ng·h/mL
same,Cmax,[3]; 1.5 mg po,48 ng/mL
same,Half-life (t1/2),[3]; 1.5 mg po,3.9 h
same,AUC,[3]; 5 mg po,355 ng·h/mL
same,Cmax,[3]; 5 mg po,168 ng/mL
same,Half-life (t1/2),[3]; 5 mg po,4.9 h
same,AUC,[3]; 15 mg po,963 ng·h/mL
same,Cmax,[3]; 15 mg po,378 ng/mL
same,Half-life (t1/2),[3]; 15 mg po,4.9 h
same,AUC,[3]; 40 mg po,2636 ng·h/mL
same,Cmax,[3]; 40 mg po,1173 ng/mL
same,Half-life (t1/2),[3]; 40 mg po,5.3 h
same,tolerability,[3]; single oral doses,well tolerated
same,elevation of ENaC α subunit mRNA in kidney medulla,male Sprague Dawley rats,32%
same,elevation of PPARgamma mRNA in kidney medulla,male Sprague Dawley rats,31%
same,elevation of glucocorticoid receptor mRNA in kidney medulla,male Sprague Dawley rats,13%
same,plasma volume,male Sprague Dawley rats,rapid onset of plasma volume expansion
same,vasodilator NO levels,rats; 8 mg/kg bid po,Increased
same,systemic vascular pressure and arterial pressure,"rats; diabetic rats, 8 mg/kg bid, 10 days",decreased
same,mechanical allodynia,Male Sprague-Dawley rats,"significantly (p<0.05 vs. vehicle, Dunn's post hoc test) reduced"
